Earlier results on two molecules are cited in patent US6878388B1, “Vanadium compounds for treating proliferative cell disorders” (Parker Hughes Institute, priority 2000, dated 2005).

In one series the test system is tumor cell growth. The note with it: Kopf-Maier et al. 1983; cited from earlier work.
In another series the test system is pharyngonasal cancer. The note with it: single assay, Sakurai et al. 1995; cited from earlier work.

Turning to Vanadocene dichloride [VDC], the “effect on tumor cell growth” value in the series on tumor cell growth is recorded as “arrest tumor cell growth”.

For `O.O.O=S(=O)([O-])[O-].[O]=[V+2].c1cnc2c(c1)ccc1cccnc12` [[VO(Phen)(H2O)2](SO4), (diaqua)(1,10-phenanthroline)oxovanadium (IV) sulfate], the “activity against pharyngonasal cancer” value in the series on pharyngonasal cancer was “active”.
